According to patent publication US10294202B2, “Pyrrolidinones as herbicides” (FMC Corporation, priority 2013, dated 2019):

Legend:
[1] = tested on: flatsedge, rice; assay: Test F flood (paddy) test; assay type: in vivo, Cyperus iria; conditions: 21 d, scale 0-100
Source text: (§1) Three plastic pots (ca. 16-cm diameter) per rate were partially filled with sterilized Tama silt loam soil comprising a 35:50:15 ratio of sand, silt and clay and 2.6% organic matter. Separate plantings for each of the three pots were as follows. Seeds from the U.S. of monochoria (Monochoria vaginalis), sedge, umbrella (small-flower umbrella sedge, Cyperus difformis), bulrush, […] bulrush, Scirpus juncoides), and […] (purple […] coccinea), were planted into one 16-cm pot for each rate. Seeds from the U.S. of flatsedge, rice (rice flatsedge, Cyperus iria), sprangletop, Brdd. (bearded sprangletop, Leptochloa fascicularis), one stand of 9 or 10 water seeded rice seedlings (Rice, W.S. Jap, Oryza sativa cv. 'Japonica-[…]' or Rice, W.S. Ind, 'Indica'), and two stands of 3 or 4 seedlings of rice, transplanted (transplanted rice, Oryza sativa cv. 'Japonica-[…]') were planted into one 16-cm pot for each rate. Seeds from the U.S. of barnyardgrass (Echinochloa crus-galli), […] (common […], Alisma plantago-aquatica), and watergrass, late (late watergrass, Echinochloa oryzicola) were planted into one 16-cm pot for each rate. Plantings were sequential so that crop and weed species were at the 2.0 to 2.5-leaf stage at time of treatment. Potted plants were grown in a greenhouse with day/night temperature settings of 30/27° C., and supplemental balanced lighting was provided to maintain a 16-h photoperiod. Test pots were maintained in the greenhouse until test completion. At time of treatment, test pots were flooded to 3 cm above the soil surface, treated by application of test compounds directly to the paddy water, and then maintained at that water depth for the duration of the test. Effects of treatments on rice and weeds were visually evaluated by comparison to untreated controls after 21 d. Plant response ratings, summarized in Table F, are based on a scale of 0 to 100 where 0 is no effect and 100 is complete control. A dash (-) response means no test result.

[2] = tested on: Rice, W.S. Jap; assay: Test F flood (paddy) test; assay type: in vivo, Oryza sativa cv. Japonica—M202; conditions: 21 d, scale 0-100
Summary of the method: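 Pots of sterilized Tama silt loam (35:50:15 sand:silt:clay, 2.6% organic matter) were sown so crop and weeds reached the 2.0–2.5-leaf stage; greenhouse 30/27 °C, 16-h photoperiod. Pots flooded to 3 cm, compound applied into paddy water, depth maintained. Visual rating vs untreated controls after 21 d, 0–100 scale.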

[3] = tested on: redstem; assay: Test F flood (paddy) test; assay type: in vivo, Ammannia coccinea; conditions: 21 d, scale 0-100
Source text: as §1

[4] = tested on: sedge, umbrella; assay: Test F flood (paddy) test; assay type: in vivo, Cyperus difformis; conditions: 21 d, scale 0-100
Source text: as §1

[5] = tested on: bulrush, hardstem; assay: Test F flood (paddy) test; assay type: in vivo, Scirpus juncoides; conditions: 21 d, scale 0-100
Source text: as §1, with “Potted plants were grown in a greenhouse with day/night temperature settings of 30/27° C., and supplemental balanced lighting was provided to maintain a 16-h photoperiod. Test pots were maintained in the greenhouse until test completion. At time of treatment, test pots were flooded to 3 cm above the soil surface, treated by application of test compounds directly to the paddy water, and then maintained at that water depth for the duration of the test.” left out, “Plant response ratings, summarized in Table F, are based on a scale of 0 to 100 where 0 is no effect and 100 is complete control. A dash (-) response means no test result.” left out

[6] = tested on: cocklebur; assay: Test E preemergence herbicide test; assay type: in vivo, Xanthium strumarium; set-up: key: 0 = no effect, 100 = complete control
Source text: (§2) Seeds of plant species selected from corn (Zea mays), soybean (Glycine max), velvetleaf (Abutilon theophrasti), lambsquarters (Chenopodium album), wild poinsettia (Euphorbia heterophylla), pigweed, palmer (palmer pigweed, Amaranthus palmeri), waterhemp (common waterhemp, Amaranthus rudis), surinam grass (Brachiaria decumbens), crabgrass, large (large crabgrass, Digitaria sanguinalis), crabgrass, Brazil (Brazilian crabgrass, Digitaria horizontalis), panicum, fall (fall panicum, Panicum dichotomiflorum), foxtail, giant (giant foxtail, Setaria faberii), foxtail, green (green foxtail, Setaria viridis), goosegrass (Eleusine indica), johnsongrass (Sorghum halepense), ragweed (common ragweed, Ambrosia elatior), barnyardgrass (Echinochloa crus-galli), sandbur (southern sandbur, Cenchrus echinatus), arrowleaf […] rhombifolia), ryegrass, Italian (Italian ryegrass, Lolium multiflorum), dayflower, VA (Virginia dayflower, Commelina virginica), field bindweed (Convolvulus arvensis), morningglory (Ipomoea coccinea), nightshade (eastern black nightshade, Solanum ptycanthum), kochia (Kochia scoparia), nutsedge, yellow (yellow nutsedge, Cyperus esculentus), cocklebur (common cocklebur, Xanthium strumarium), smartweed (ladysthumb smartweed, Polygonum Persicaria) and beggarticks (hairy beggarticks, Bidens pilosa), were planted into a silt loam soil and treated preemergence with test chemicals formulated in a non-phytotoxic solvent mixture which included a surfactant. Treated plants and controls were maintained in a greenhouse for 21 days, after which time all species were compared to controls and visually evaluated. Plant response ratings, summarized in Table E, are based on a scale of 0 to 100 where 0 is no effect and 100 is complete control. A dash (-) response means no test result.

[7] = tested on: pigweed, palmer; assay: Test E preemergence herbicide test; assay type: in vivo, Amaranthus palmeri; set-up: key: 0 = no effect, 100 = complete control
Source text: as §2

[8] = tested on: windgrass; assay: Test C postemergence herbicide test; assay type: in vivo, Apera spica-venti
Source text: (§3) At the same time, plants selected from these crop and weed species and also barley (winter barley, Hordeum vulgare), […]), chickweed (common chickweed, Stellaria media), deadnettle (henbit deadnettle, Lamium amplexicaule), and canarygrass (littleseed canarygrass, Phalaris minor) were planted in pots containing Redi-Earth® planting medium (Scotts Company, 14111 Scottslawn Road, Marysville, Ohio 43041) comprising spaghnum peat moss, vermiculite, wetting agent and starter nutrients and treated with postemergence applications of test chemicals formulated in the same manner. Plants ranged in height from 2 to 18 cm (1- to 4-leaf stage) for postemergence treatments. Treated plants and controls were maintained in a greenhouse for 13 to 15 days, after which time all species were compared to controls and visually evaluated. Plant response ratings, summarized in Table C, are based on a scale of 0 to 100 where 0 is no effect and 100 is complete control. A dash (-) response means no test result.

[9] = tested on: canarygrass; assay: Test C postemergence herbicide test; assay type: in vivo, Phalaris minor
Source text: as §3

[10] = tested on: deadnettle; assay: Test C postemergence herbicide test; assay type: in vivo, Lamium amplexicaule
Source text: as §3

[11] = tested on: Rice, W.S. Ind; assay: Test F flood (paddy) test; assay type: in vivo, Oryza sativa Indica; conditions: 21 d, scale 0-100
Source text: as §1

[12] = tested on: waterplantain; assay: Test F flood (paddy) test; assay type: in vivo, Alisma plantago-aquatica; conditions: 21 d, scale 0-100
Source text: as §1

[13] = 31 g ai/ha, scale 0 (no effect) to 100 (complete control)
[14] = 62 g ai/ha, scale 0 to 100 (0 no effect, 100 complete control)
[15] = 125 g ai/ha, scale 0 to 100 (0 no effect, 100 complete control)
[16] = 250 g ai/ha, scale 0 to 100 (0 no effect, 100 complete control)

O=C1NCC(c2cccc(C(F)(F)F)c2)C1C(=O)Nc1ccccc1F (racemic) [Compound 3]
Plant response rating, Flatsedge, Rice ([1]; 250 g ai/ha): 0 | Plant response rating, Flatsedge, Rice ([1]; 500 g ai/ha): 20 | Plant response rating, Rice, W.S. Jap ([2]; 250 g ai/ha): 0 | Plant response rating, Rice, W.S. Jap ([2]; 500 g ai/ha): 10 | Plant response rating, Redstem ([3]; 250 g ai/ha): 0 | Plant response rating, Redstem ([3]; 500 g ai/ha): 20 | Plant response rating, Sedge, Umbrella ([4]; 250 g ai/ha): 0 | Plant response rating, Sedge, Umbrella ([4]; 500 g ai/ha): 0 | Plant response rating, Bulrush, Hardstem ([5]; 250 g ai/ha): 0 | Plant response rating, Bulrush, Hardstem ([5]; 500 g ai/ha): 30

O=C1NCC(c2ccc(F)cc2)C1C(=O)Nc1ccccc1F (racemic) [Compound 16]
Plant response rating, Cocklebur ([6]; 16 g ai/ha): 0 | Plant response rating, Cocklebur ([6]; 31 g ai/ha): 0 | Plant response rating, Cocklebur ([6]; 62 g ai/ha): 0 | Plant response rating, Cocklebur ([6]; 125 g ai/ha): 0 | Plant response rating, Cocklebur ([6]; 250 g ai/ha): 0 | Plant response rating, Pigweed, Palmer ([7]; 16 g ai/ha): 0 | Plant response rating, Pigweed, Palmer ([7]; 31 g ai/ha): 0 | Plant response rating, Pigweed, Palmer ([7]; 62 g ai/ha): 0 | Plant response rating, Pigweed, Palmer ([7]; 125 g ai/ha): 0 | Plant response rating, Pigweed, Palmer ([7]; 250 g ai/ha): 0

O=C1NCC(c2cc(F)c(F)c(F)c2)C1C(=O)Nc1ccccc1F (racemic) [Compound 34]
Plant response rating, Windgrass [8, 13]: 0 | Plant response rating, Windgrass [8, 14]: 0 | Plant response rating, Windgrass [8, 15]: 0 | Plant response rating, Windgrass [8, 16]: 5 | Plant response rating, Canarygrass [9, 13]: 0 | Plant response rating, Canarygrass [9, 14]: 0 | Plant response rating, Canarygrass [9, 15]: 0 | Plant response rating, Canarygrass [9, 16]: 0 | Plant response rating, Deadnettle [10, 13]: 0 | Plant response rating, Deadnettle [10, 14]: 0 | Plant response rating, Deadnettle [10, 15]: 0 | Plant response rating, Deadnettle [10, 16]: 0

O=C1NCC(c2ccccc2)C1C(=O)Nc1ccccc1F (racemic) [Compound 81]
Plant response rating, Windgrass [8, 13]: 0 | Plant response rating, Windgrass [8, 14]: 0 | Plant response rating, Windgrass [8, 15]: 20 | Plant response rating, Windgrass [8, 16]: 20 | Plant response rating, Canarygrass [9, 13]: 0 | Plant response rating, Canarygrass [9, 14]: 0 | Plant response rating, Canarygrass [9, 15]: 0 | Plant response rating, Canarygrass [9, 16]: 0

O=C1NCC(c2cccc(C(F)(F)F)c2)C1C(=O)Nc1ccc(F)cc1F (racemic) [Compound 207]
Plant response rating, Rice, W.S. Ind ([11]; 125 g ai/ha): 0 | Plant response rating, Rice, W.S. Ind ([11]; 250 g ai/ha): 0 | Plant response rating, Rice, W.S. Ind ([11]; 500 g ai/ha): 10

O=C1NCC(c2ccc(C(F)(F)F)c(F)c2)C1C(=O)Nc1cccc(F)c1F (racemic) [Compound 247]
Plant response rating, Flatsedge, Rice ([1]; 125 g ai/ha): 0 | Plant response rating, Flatsedge, Rice ([1]; 250 g ai/ha): 0 | Plant response rating, Flatsedge, Rice ([1]; 500 g ai/ha): 0 | Plant response rating, Flatsedge, Rice ([1]; 1000 g ai/ha): 0 | Plant response rating, Flatsedge, Rice ([1]; 2000 g ai/ha): 35 | Plant response rating, Waterplantain ([12]; 125 g ai/ha): 80 | Plant response rating, Waterplantain ([12]; 250 g ai/ha): 85 | Plant response rating, Waterplantain ([12]; 500 g ai/ha): 90 | Plant response rating, Waterplantain ([12]; 1000 g ai/ha): 90 | Plant response rating, Waterplantain ([12]; 2000 g ai/ha): 90 | Plant response rating, Redstem ([3]; 125 g ai/ha): 0 | Plant response rating, Redstem ([3]; 250 g ai/ha): 0 | Plant response rating, Redstem ([3]; 500 g ai/ha): 0 | Plant response rating, Redstem ([3]; 1000 g ai/ha): 50 | Plant response rating, Redstem ([3]; 2000 g ai/ha): 55 | Plant response rating, Sedge, Umbrella ([4]; 125 g ai/ha): 0 | Plant response rating, Sedge, Umbrella ([4]; 250 g ai/ha): 0 | Plant response rating, Sedge, Umbrella ([4]; 500 g ai/ha): 0 | Plant response rating, Sedge, Umbrella ([4]; 1000 g ai/ha): 0 | Plant response rating, Sedge, Umbrella ([4]; 2000 g ai/ha): 0

O=C1NCC(c2cccc(Br)c2)C1C(=O)Nc1ccccc1F (centres unmarked) [Compound 66]
Plant response rating, Cocklebur ([6]; 16 g ai/ha): 0 | Plant response rating, Cocklebur ([6]; 31 g ai/ha): 0 | Plant response rating, Cocklebur ([6]; 62 g ai/ha): 0

O=C1NCC(c2ccc(C(F)(F)F)cc2)C1C(=O)Nc1ccc(F)c(F)c1F (centres unmarked) [Compound 232]
Plant response rating, Pigweed, Palmer ([7]; 31 g ai/ha): 0 | Plant response rating, Pigweed, Palmer ([7]; 62 g ai/ha): 0 | Plant response rating, Pigweed, Palmer ([7]; 125 g ai/ha): 80 | Plant response rating, Pigweed, Palmer ([7]; 250 g ai/ha): 65

CN1CC(c2ccc(F)cc2)C(C(=O)Nc2cccc(F)c2F)C1=O (centres unmarked) [Compound 271]
Plant response rating, Rice, W.S. Ind ([11]; 64 g ai/ha): 0 | Plant response rating, Rice, W.S. Ind ([11]; 125 g ai/ha): 15 | Plant response rating, Rice, W.S. Ind ([11]; 250 g ai/ha): 30 | Plant response rating, Rice, W.S. Ind ([11]; 500 g ai/ha): 60
